Measured values reported in the supplement of paper PMC10307832.

How the values were obtained:
Experiment in all cases: relative viability (nuclei count vs DMSO), 5 days (fraction); higher = more cells survive
201T = tested on: 201T
Procedure, shortened: (§1)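 Lung cancer cell lines, seeded in 1536-well plates, were treated the following day by pin tool with a single drug or with five library-drug doses (not always all listed) in √10 steps on top of a fixed anchor-drug dose. Cells were fixed and nuclei stained in one step after 5 days, and nuclei were counted. Relative viability is the nuclei count for treated wells divided by that for vehicle wells, reported as medians of duplicate plates.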

NCI-H1666 = tested on: NCI-H1666
Procedure, shortened: as §1

NCI-H441 = tested on: NCI-H441
Procedure, shortened: as §1

SK-MES-1 = tested on: SK-MES-1
Procedure, shortened: as §1

A-427 = tested on: A-427
Procedure, shortened: as §1

COR-L23 = tested on: COR-L23
Procedure, shortened: as §1

NCI-H596 = tested on: NCI-H596
Procedure, shortened: as §1

LK-2 = tested on: LK-2
Procedure, shortened: as §1

EKVX = tested on: EKVX
Procedure, shortened: as §1

NCI-H650 = tested on: NCI-H650
Procedure, shortened: as §1

HCC-44 = tested on: HCC-44
Procedure, shortened: as §1

NCI-H838 = tested on: NCI-H838
Procedure, shortened: as §1

NCI-H522 = tested on: NCI-H522
Procedure, shortened: as §1

HARA = tested on: HARA
Procedure, shortened: as §1

HCC-15 = tested on: HCC-15
Procedure, shortened: as §1

NCI-H23 = tested on: NCI-H23
Procedure, shortened: as §1

HCC-827 = tested on: HCC-827
Procedure, shortened: as §1

LCLC-103H = tested on: LCLC-103H
Procedure, shortened: as §1

NCI-H1437 = tested on: NCI-H1437
Procedure, shortened: as §1

COR-L 105 = tested on: COR-L 105
Procedure, shortened: as §1

NCI-H1975 = tested on: NCI-H1975
Procedure, shortened: as §1

SW 900 = tested on: SW 900
Procedure, shortened: as §1

NCI-H520 = tested on: NCI-H520
Procedure, shortened: as §1

Clc1ccc(Nc2nnc(Cc3ccncc3)c3ccccc23)cc1 [Vatalanib] + O=C(CCCCCCC(=O)Nc1ccccc1)NO [Vorinostat] (partner 1 µM)
relative viability (201T; first compound 0.04 µM): 0.995
relative viability (201T; first compound 0.1265 µM): 1.01
relative viability (201T; first compound 0.4 µM): 1.06
relative viability (201T; first compound 1.265 µM): 1.01
relative viability (201T; first compound 4 µM): 1.07
relative viability (NCI-H1666; first compound 0.04 µM): 0.997
relative viability (NCI-H1666; first compound 0.1265 µM): 1.02
relative viability (NCI-H1666; first compound 0.4 µM): 1.03
relative viability (NCI-H1666; first compound 1.265 µM): 1.04
relative viability (NCI-H1666; first compound 4 µM): 0.908
relative viability (NCI-H441; first compound 0.04 µM): 0.907
relative viability (NCI-H441; first compound 0.1265 µM): 0.589
relative viability (NCI-H441; first compound 0.4 µM): 0.704
relative viability (NCI-H441; first compound 1.265 µM): 0.776
relative viability (NCI-H441; first compound 4 µM): 0.81
relative viability (SK-MES-1; first compound 0.04 µM): 1.13
relative viability (SK-MES-1; first compound 0.1265 µM): 1.11
relative viability (SK-MES-1; first compound 0.4 µM): 1.12
relative viability (SK-MES-1; first compound 1.265 µM): 0.98
relative viability (SK-MES-1; first compound 4 µM): 0.985
relative viability (A-427; first compound 0.04 µM): 0.874
relative viability (A-427; first compound 0.1265 µM): 0.852
relative viability (A-427; first compound 0.4 µM): 0.945
relative viability (A-427; first compound 4 µM): 0.83
relative viability (COR-L23; first compound 0.04 µM): 0.356
relative viability (COR-L23; first compound 0.1265 µM): 0.553
relative viability (COR-L23; first compound 0.4 µM): 0.499
relative viability (COR-L23; first compound 1.265 µM): 0.417
relative viability (COR-L23; first compound 4 µM): 0.469
relative viability (NCI-H596; first compound 0.04 µM): 0.603
relative viability (NCI-H596; first compound 0.1265 µM): 0.542
relative viability (NCI-H596; first compound 0.4 µM): 0.672
relative viability (NCI-H596; first compound 1.265 µM): 0.583
relative viability (NCI-H596; first compound 4 µM): 0.608
relative viability (LK-2; first compound 0.04 µM): 0.388
relative viability (LK-2; first compound 0.1265 µM): 0.314
relative viability (LK-2; first compound 0.4 µM): 0.328
relative viability (LK-2; first compound 1.265 µM): 0.308
relative viability (LK-2; first compound 4 µM): 0.222
relative viability (EKVX; first compound 0.04 µM): 0.773
relative viability (EKVX; first compound 0.1265 µM): 0.767
relative viability (EKVX; first compound 0.4 µM): 0.831
relative viability (EKVX; first compound 1.265 µM): 0.655
relative viability (EKVX; first compound 4 µM): 0.665
relative viability (NCI-H650; first compound 0.04 µM): 0.397
relative viability (NCI-H650; first compound 0.1265 µM): 0.496
relative viability (NCI-H650; first compound 0.4 µM): 0.453
relative viability (NCI-H650; first compound 1.265 µM): 0.414
relative viability (NCI-H650; first compound 4 µM): 0.443
relative viability (HCC-44; first compound 0.04 µM): 1.11
relative viability (HCC-44; first compound 0.1265 µM): 1.08
relative viability (HCC-44; first compound 0.4 µM): 1.09
relative viability (HCC-44; first compound 1.265 µM): 1.04
relative viability (HCC-44; first compound 4 µM): 1.07
relative viability (NCI-H838; first compound 0.04 µM): 0.738
relative viability (NCI-H838; first compound 0.1265 µM): 0.761
relative viability (NCI-H838; first compound 0.4 µM): 0.775
relative viability (NCI-H838; first compound 1.265 µM): 0.62
relative viability (NCI-H838; first compound 4 µM): 0.694
relative viability (NCI-H522; first compound 0.04 µM): 0.634
relative viability (NCI-H522; first compound 0.1265 µM): 0.898
relative viability (NCI-H522; first compound 0.4 µM): 1.06
relative viability (NCI-H522; first compound 1.265 µM): 1
relative viability (NCI-H522; first compound 4 µM): 0.895
relative viability (HARA; first compound 0.04 µM): 0.643
relative viability (HARA; first compound 0.1265 µM): 0.51
relative viability (HARA; first compound 0.4 µM): 0.479
relative viability (HARA; first compound 1.265 µM): 0.566
relative viability (HARA; first compound 4 µM): 0.481
relative viability (HCC-15; first compound 0.04 µM): 0.853
relative viability (HCC-15; first compound 0.1265 µM): 0.836
relative viability (HCC-15; first compound 0.4 µM): 0.964
relative viability (HCC-15; first compound 1.265 µM): 0.801
relative viability (HCC-15; first compound 4 µM): 0.863
relative viability (NCI-H23; first compound 0.04 µM): 0.57
relative viability (NCI-H23; first compound 0.1265 µM): 0.558
relative viability (NCI-H23; first compound 0.4 µM): 0.77
relative viability (NCI-H23; first compound 1.265 µM): 0.495
relative viability (NCI-H23; first compound 4 µM): 0.546
relative viability (HCC-827; first compound 0.04 µM): 0.767
relative viability (HCC-827; first compound 0.1265 µM): 0.953
relative viability (HCC-827; first compound 1.265 µM): 0.741
relative viability (HCC-827; first compound 4 µM): 0.86
relative viability (LCLC-103H; first compound 0.04 µM): 0.776
relative viability (LCLC-103H; first compound 0.1265 µM): 0.765
relative viability (LCLC-103H; first compound 0.4 µM): 0.826
relative viability (LCLC-103H; first compound 1.265 µM): 0.738
relative viability (LCLC-103H; first compound 4 µM): 0.726
relative viability (NCI-H1437; first compound 0.04 µM): 0.836
relative viability (NCI-H1437; first compound 0.1265 µM): 0.851
relative viability (NCI-H1437; first compound 0.4 µM): 0.88
relative viability (NCI-H1437; first compound 1.265 µM): 0.616
relative viability (NCI-H1437; first compound 4 µM): 0.673
relative viability (COR-L 105; first compound 0.04 µM): 0.846
relative viability (COR-L 105; first compound 0.1265 µM): 0.806
relative viability (COR-L 105; first compound 0.4 µM): 0.829
relative viability (COR-L 105; first compound 1.265 µM): 0.905
relative viability (COR-L 105; first compound 4 µM): 0.794
relative viability (NCI-H1975; first compound 0.04 µM): 0.674
relative viability (NCI-H1975; first compound 0.1265 µM): 0.691
relative viability (NCI-H1975; first compound 0.4 µM): 0.726
relative viability (NCI-H1975; first compound 1.265 µM): 0.66
relative viability (NCI-H1975; first compound 4 µM): 0.71
relative viability (SW 900; first compound 0.04 µM): 0.551
relative viability (SW 900; first compound 0.1265 µM): 0.549
relative viability (SW 900; first compound 0.4 µM): 0.583
relative viability (SW 900; first compound 1.265 µM): 0.344
relative viability (SW 900; first compound 4 µM): 0.591
relative viability (NCI-H520; first compound 0.04 µM): 0.621
relative viability (NCI-H520; first compound 0.1265 µM): 0.642
relative viability (NCI-H520; first compound 0.4 µM): 0.817
relative viability (NCI-H520; first compound 1.265 µM): 0.661
relative viability (NCI-H520; first compound 4 µM): 0.718
